One test has as its system NL-RLuc virus (recombinant NL4-3 proviral clone with Renilla Luciferase gene). Briefly: Inhibition of HIV replication (NL-RLuc reporter virus in MT-2 cells). In kind it is cell-based. Particulars: Renilla, NL43, 120 h, read-out: Activity. The text has this: Inhibition of HIV replication: A recombinant NL-RLuc proviral clone was constructed in which a section of the nef gene from NL4-3 was replaced with the Renilla Luciferase gene. This virus is fully infectious and can undergo multiple cycles of replication in cell culture. In addition, the luciferous reporter provides a simple and easy method for quantitating the extent of virus growth and consequently, the antiviral activity of test compounds. The plasmid pNLRLuc contains the proviral NL-Rluc DNA cloned into pUC18 at the PvuII site. The NL-RLuc virus was prepared by transfection of 293T cells with the plasmid pNLRLuc. Transfections were performed using the LipofectAMINE PLUS kit from Invitrogen (Carlsbad, Calif.) according to the manufacturer and the virus generated was titered in MT-2 cells. For susceptibility analyses, the titrated virus was used to infect MT-2 cells in the presence of compound, and after 5 days of incubation, cells were processed and quantitated for virus growth by the amount of expressed luciferase. Assay media was RPMI 1640 supplemented with 10% heat inactivated fetal bovine serum (FBS), 100 units/ml penicillin G/100 units/ml streptomycin, 10 mM HEPES buffer pH 7.55 and 2 mM L-glutamine. The results from at least 2 experiments were used to calculate the EC50 values. Luciferase was quantitated using the Dual Luciferase kit from Promega (Madison, Wis.). Susceptibility of viruses to compounds was determined by incubation in the presence of serial dilutions of the compound. The 50% effective concentration (EC50) was calculated by using the exponential form of the median effect equation where (Fa)=1/[1+(ED50/drug conc.)^m] (Johnson V A, Byington R T. Infectivity Assay. In Techniques in HIV Research. ed. Aldovini A, Walker B D. 71-76. New York: Stockton Press.1990). Activity equal to A refers to a compound having an EC50≤100 nM, while B and C denote compounds having an EC50 between 100 nM and 1 uM (B) or >1 uM (C).
Turning to `COc1cccc(-c2ccc(-c3c(C)nc(C)c([C@H](OC(C)(C)C)C(=O)O)c3N3CCC(C)(C)CC3)cc2)c1` [Example 21, (S)-2-(tert-Butoxy)-2-(4-(4,4-dimethylpiperidin-1-yl)-5-(3′-methoxy-[1,1′-biphenyl]-4-yl)-2,6-dimethylpyridin-3-yl)acetic acid], the EC50 is < 0.1 µM.

On to `CCCCCc1ccc(-c2c(C)nc(C)c([C@H](OC(C)(C)C)C(=O)O)c2N2CCC(C)(C)CC2)cc1` [Example 22, (S)-2-(tert-Butoxy)-2-(4-(4,4-dimethylpiperidin-1-yl)-2,6-dimethyl-5-(4-pentylphenyl)pyridin-3-yl)acetic acid], for which the EC50 is < 0.1 µM.

Consider `Cc1nc(C)c([C@H](OC(C)(C)C)C(=O)O)c(N2CCC(C)(C)CC2)c1-c1ccc(SCCC(C)C)cc1` [Example 23, (S)-2-(tert-Butoxy)-2-(4-(4,4-dimethylpiperidin-1-yl)-5-(4-(isopentylthio)phenyl)-2,6-dimethylpyridin-3-yl)acetic acid], for which the EC50 is < 0.1 µM.

Regarding `Cc1nc(C)c([C@H](OC(C)(C)C)C(=O)O)c(N2CCC(C)(C)CC2)c1-c1ccc(C(=O)NCc2ccccc2)cc1` [Example 24, (S)-2-(5-(4-(Benzylcarbamoyl)phenyl)-4-(4,4-dimethylpiperidin-1-yl)-2,6-dimethylpyridin-3-yl)-2-(tert-butoxy)acetic acid], the EC50 is < 0.1 µM.

For `Cc1nc(C)c([C@H](OC(C)(C)C)C(=O)O)c(N2CCC(C)(C)CC2)c1-c1ccc(C(N)=O)cc1` [Example 25, (S)-2-(tert-Butoxy)-2-(5-(4-carbamoylphenyl)-4-(4,4-dimethylpiperidin-1-yl)-2,6-dimethylpyridin-3-yl)acetic acid], the EC50 is 0.1 to 1 µM.

`Cc1nc(C)c([C@H](OC(C)(C)C)C(=O)O)c(N2CCC(C)(C)CC2)c1-c1ccc(CC(N)=O)cc1` [Example 26, (S)-2-(5-(4-(2-Amino-2-oxoethyl)phenyl)-4-(4,4-dimethylpiperidin-1-yl)-2,6-dimethylpyridin-3-yl)-2-(tert-butoxy)acetic acid]: the EC50 was 0.1 to 1 µM.

Take `Cc1nc(C)c([C@H](OC(C)(C)C)C(=O)O)c(N2CCC(C)(C)CC2)c1-c1ccc(C2(C#N)CC2)cc1` [Example 27, (S)-2-(tert-Butoxy)-2-(5-(4-(1-cyanocyclopropyl)phenyl)-4-(4,4-dimethylpiperidin-1-yl)-2,6-dimethylpyridin-3-yl)acetic acid]: the EC50 is < 0.1 µM.

As for `Cc1nc(C)c([C@H](OC(C)(C)C)C(=O)O)c(N2CCC(C)(C)CC2)c1-c1cncnc1` [Example 28, (S)-2-(tert-Butoxy)-2-(4-(4,4-dimethylpiperidin-1-yl)-2,6-dimethyl-5-(pyrimidin-5-yl)pyridin-3-yl)acetic acid], the EC50 was 0.1 to 1 µM.

Take `Cc1nc(C)c([C@H](OC(C)(C)C)C(=O)O)c(N2CCC(C)(C)CC2)c1-c1ccc(N2CCCCC2)cc1` [Example 29, (S)-2-(tert-Butoxy)-2-(4-(4,4-dimethylpiperidin-1-yl)-2,6-dimethyl-5-(4-(piperidin-1-yl)phenyl)pyridin-3-yl)acetic acid]: the EC50 was < 0.1 µM.

In the case of `Cc1nc(C)c([C@H](OC(C)(C)C)C(=O)O)c(N2CCC(C)(C)CC2)c1-c1ccc(S(=O)(=O)C(C)C)cc1` [Example 30, (S)-2-(tert-Butoxy)-2-(4-(4,4-dimethylpiperidin-1-yl)-5-(4-(isopropylsulfonyl)phenyl)-2,6-dimethylpyridin-3-yl)acetic acid], the EC50 is < 0.1 µM.

In the case of `Cc1nc(C)c([C@H](OC(C)(C)C)C(=O)O)c(N2CCC(C)(C)CC2)c1-c1ccc(CCCO)cc1` [Example 31, (S)-2-(tert-Butoxy)-2-(4-(4,4-dimethylpiperidin-1-yl)-5-(4-(3-hydroxypropyl)phenyl)-2,6-dimethylpyridin-3-yl)acetic acid], the EC50 was < 0.1 µM.

`CNS(=O)(=O)c1ccc(-c2c(C)nc(C)c([C@H](OC(C)(C)C)C(=O)O)c2N2CCC(C)(C)CC2)cc1` [Example 32, (S)-2-(tert-Butoxy)-2-(4-(4,4-dimethylpiperidin-1-yl)-2,6-dimethyl-5-(4-(N-methylsulfamoyl)phenyl)pyridin-3-yl)acetic acid]: the EC50 lay in the range of 0.1 to 1 µM.

Turning to `Cc1nc(C)c([C@H](OC(C)(C)C)C(=O)O)c(N2CCC(C)(C)CC2)c1-c1cc(F)c(F)c(F)c1` [Example 33, (S)-2-(tert-Butoxy)-2-(4-(4,4-dimethylpiperidin-1-yl)-2,6-dimethyl-5-(3,4,5-trifluorophenyl)pyridin-3-yl)acetic acid], the EC50 is < 0.1 µM.

Regarding `Cc1nc(C)c([C@H](OC(C)(C)C)C(=O)O)c(N2CCC(C)(C)CC2)c1-c1cc(F)c(CO)c(F)c1` [Example 34, (S)-2-(tert-Butoxy)-2-(5-(3,5-difluoro-4-(hydroxymethyl)phenyl)-4-(4,4-dimethylpiperidin-1-yl)-2,6-dimethylpyridin-3-yl)acetic acid], the EC50 is < 0.1 µM.

Regarding `Cc1nc(C)c([C@H](OC(C)(C)C)C(=O)O)c(N2CCC(C)(C)CC2)c1-c1ccc(S(=O)(=O)NC2CC2)cc1` [Example 35, (S)-2-(tert-Butoxy)-2-(5-(4-(N-cyclopropylsulfamoyl)phenyl)-4-(4,4-dimethylpiperidin-1-yl)-2,6-dimethylpyridin-3-yl)acetic acid], the EC50 was in the range of 0.1 to 1 µM.

For `Cc1nc(C)c([C@H](OC(C)(C)C)C(=O)O)c(N2CCC(C)(C)CC2)c1-c1ccc(C(C)(C)C#N)cc1` [Example 36, (S)-2-(tert-Butoxy)-2-(5-(4-(2-cyanopropan-2-yl)phenyl)-4-(4,4-dimethylpiperidin-1-yl)-2,6-dimethylpyridin-3-yl)acetic acid], the EC50 is < 0.1 µM.

Turning to `CC(=O)NNC(=O)c1ccc(-c2c(C)nc(C)c([C@H](OC(C)(C)C)C(=O)O)c2N2CCC(C)(C)CC2)cc1` [Example 37, (S)-2-(5-(4-(2-Acetylhydrazinecarbonyl)phenyl)-4-(4,4-dimethylpiperidin-1-yl)-2,6-dimethylpyridin-3-yl)-2-(tert-butoxy)acetic acid], the EC50 is > 1 µM.

For the compound `Cc1nc(C)c([C@H](OC(C)(C)C)C(=O)O)c(N2CCC(C)(C)CC2)c1-c1ccc(C(C)(C)O)cc1` [Example 38, (S)-2-(tert-Butoxy)-2-(4-(4,4-dimethylpiperidin-1-yl)-5-(4-(2-hydroxypropan-2-yl)phenyl)-2,6-dimethylpyridin-3-yl)acetic acid], the EC50 is < 0.1 µM.

For the compound `Cc1cc(-c2c(C)nc(C)c([C@H](OC(C)(C)C)C(=O)O)c2N2CCC(C)(C)CC2)ccc1F` [Example 39, (S)-2-(tert-Butoxy)-2-(4-(4,4-dimethylpiperidin-1-yl)-5-(4-fluoro-3-methylphenyl)-2,6-dimethylpyridin-3-yl)acetic acid], the EC50 is < 0.1 µM.

Turning to `Cc1nc(C)c([C@H](OC(C)(C)C)C(=O)O)c(N2CCC(C)(C)CC2)c1-c1cccc(C(C)C)c1` [Example 40, (S)-2-(tert-Butoxy)-2-(4-(4,4-dimethylpiperidin-1-yl)-5-(3-isopropylphenyl)-2,6-dimethylpyridin-3-yl)acetic acid], the EC50 was < 0.1 µM.

As for `Cc1nc(C)c([C@H](OC(C)(C)C)C(=O)O)c(N2CCC(C)(C)CC2)c1-c1ccc(F)c(F)c1` [Example 41, (S)-2-(tert-Butoxy)-2-(5-(3,4-difluorophenyl)-4-(4,4-dimethylpiperidin-1-yl)-2,6-dimethylpyridin-3-yl)acetic acid], the EC50 was < 0.1 µM.

For the compound `CSc1ncc(-c2c(C)nc(C)c([C@H](OC(C)(C)C)C(=O)O)c2N2CCC(C)(C)CC2)cn1` [Example 42, (S)-2-(tert-Butoxy)-2-(4-(4,4-dimethylpiperidin-1-yl)-2,6-dimethyl-5-(2-(methylthio)pyrimidin-5-yl)pyridin-3-yl)acetic acid], the EC50 is < 0.1 µM.

For `Cc1nc(C)c([C@H](OC(C)(C)C)C(=O)O)c(N2CCC(C)(C)CC2)c1-c1ccc(C(=O)NC2CC2)cc1` [Example 43, (S)-2-(tert-Butoxy)-2-(5-(4-(cyclopropylcarbamoyl)phenyl)-4-(4,4-dimethylpiperidin-1-yl)-2,6-dimethylpyridin-3-yl)acetic acid], the EC50 was < 0.1 µM.

As to `Cc1ccc(-c2c(C)nc(C)c([C@H](OC(C)(C)C)C(=O)O)c2N2CCC(C)(C)CC2)cc1C` [Example 44, (S)-2-(tert-Butoxy)-2-(5-(3,4-dimethylphenyl)-4-(4,4-dimethylpiperidin-1-yl)-2,6-dimethylpyridin-3-yl)acetic acid], the EC50 was < 0.1 µM.

On to `Cc1nc(C)c([C@H](OC(C)(C)C)C(=O)O)c(N2CCC(C)(C)CC2)c1-c1ccc(C(=O)O)c(C(=O)NCc2ccccc2)c1` [Example 45, (S)-2-(benzylcarbamoyl)-4-(5-(tert-butoxy(carboxy)methyl)-4-(4,4-dimethylpiperidin-1-yl)-2,6-dimethylpyridin-3-yl)benzoic acid], for which the EC50 was 0.1 to 1 µM.

The same test, now with this note: Renilla, NL43, 120 h, read-out: EC50 μM.
On to `Cc1nc(C)c([C@H](OC(C)(C)C)C(=O)O)c(N2CCC(C)(C)CC2)c1-c1ccc(CC(N)=O)cc1` [Example 26, (S)-2-(5-(4-(2-Amino-2-oxoethyl)phenyl)-4-(4,4-dimethylpiperidin-1-yl)-2,6-dimethylpyridin-3-yl)-2-(tert-butoxy)acetic acid], for which the EC50 came out at 0.373 µM.

For the compound `CC(=O)NNC(=O)c1ccc(-c2c(C)nc(C)c([C@H](OC(C)(C)C)C(=O)O)c2N2CCC(C)(C)CC2)cc1` [Example 37, (S)-2-(5-(4-(2-Acetylhydrazinecarbonyl)phenyl)-4-(4,4-dimethylpiperidin-1-yl)-2,6-dimethylpyridin-3-yl)-2-(tert-butoxy)acetic acid], the EC50 came to 1.15 µM.

The values are drawn from US20180170904A1, “PYRIDIN-3-YL ACETIC ACID DERIVATIVES AS INHIBITORS OF HUMAN IMMUNODEFICIENCY VIRUS REPLICATION” (priority 2015, published 2018).
